We go through 1 compound from ChEMBL document CHEMBL2074480, “Characterization of tetrandrine, a potent inhibitor of P-glycoprotein-mediated multidrug resistance” (Cancer Chemother Pharmacol, 2004).

The data set has as its target ATP-dependent translocase ABCB1 (Homo sapiens, UniProt P08183). As to the kind of experiment: TP_TRANSPORTER: drug resistance (vincristine) in KBV200 cells. The class given is functional, cell-based.

Sequence of ATP-dependent translocase ABCB1 (P08183 whole entry): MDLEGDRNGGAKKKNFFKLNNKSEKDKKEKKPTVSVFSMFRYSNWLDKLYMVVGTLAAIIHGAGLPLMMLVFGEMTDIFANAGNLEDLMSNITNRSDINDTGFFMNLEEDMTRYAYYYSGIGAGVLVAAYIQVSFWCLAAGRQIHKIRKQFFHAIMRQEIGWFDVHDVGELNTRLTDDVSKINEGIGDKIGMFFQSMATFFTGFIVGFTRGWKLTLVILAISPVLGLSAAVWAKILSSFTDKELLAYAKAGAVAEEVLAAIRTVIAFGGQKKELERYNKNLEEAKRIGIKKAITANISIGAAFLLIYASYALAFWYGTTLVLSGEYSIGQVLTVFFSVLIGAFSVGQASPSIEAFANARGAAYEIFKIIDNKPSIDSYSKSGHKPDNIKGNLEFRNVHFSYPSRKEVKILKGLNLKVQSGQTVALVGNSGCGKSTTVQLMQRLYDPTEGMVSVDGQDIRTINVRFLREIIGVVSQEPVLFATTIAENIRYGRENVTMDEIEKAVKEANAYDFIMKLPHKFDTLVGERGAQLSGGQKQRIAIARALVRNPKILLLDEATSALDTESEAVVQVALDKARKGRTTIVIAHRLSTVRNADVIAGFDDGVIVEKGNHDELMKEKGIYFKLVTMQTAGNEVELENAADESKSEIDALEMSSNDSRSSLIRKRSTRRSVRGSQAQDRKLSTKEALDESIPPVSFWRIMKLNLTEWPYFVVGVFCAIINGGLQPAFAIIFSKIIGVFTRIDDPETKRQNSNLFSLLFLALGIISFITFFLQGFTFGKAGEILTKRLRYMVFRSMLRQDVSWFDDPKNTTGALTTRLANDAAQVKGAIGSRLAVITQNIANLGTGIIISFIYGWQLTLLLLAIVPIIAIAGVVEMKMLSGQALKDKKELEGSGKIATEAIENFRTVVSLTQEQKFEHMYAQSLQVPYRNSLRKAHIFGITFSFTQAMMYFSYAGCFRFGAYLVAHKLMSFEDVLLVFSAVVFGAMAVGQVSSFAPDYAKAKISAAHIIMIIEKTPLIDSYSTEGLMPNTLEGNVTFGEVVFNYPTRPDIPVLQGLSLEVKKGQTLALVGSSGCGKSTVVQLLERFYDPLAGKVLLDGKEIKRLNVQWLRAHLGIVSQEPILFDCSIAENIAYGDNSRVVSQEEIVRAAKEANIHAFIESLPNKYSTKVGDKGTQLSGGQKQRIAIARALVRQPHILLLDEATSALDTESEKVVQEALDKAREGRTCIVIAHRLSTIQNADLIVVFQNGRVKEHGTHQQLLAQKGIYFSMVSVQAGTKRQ

Take `COc1ccc2cc1Oc1ccc(cc1)C[C@H]1c3cc(c(OC)cc3CCN1C)Oc1c(OC)c(OC)cc3c1[C@H](C2)N(C)CC3` [FANCHININ]: the Activity result was “inhibitor [+]”.
